# Assay results: patent US20060024392A1, “Compositions and methods for enhancing the effectiveness of a chemotherapeutic agent” (priority 2004, published 2006)
# Key:
# colon cancer = details: clinical treatment of colon cancer; cited from earlier work
# HT29 colon cancer cells = experiment: Sulforhodamine B (SRB) cell growth assay in HT29 colon cancer cells; type: cell-based
# Protocol: HT-29, a cell line derived from colorectal adenocarcinoma (ATCC, HTB 38), grows in McCoy's 5A medium (Biowhittaker, Inc. Walkersville, Md.). NCM460, a cell line derived from a normal human colon (InCell Corp. San Antonio, Tex.), grows in M3 Base media (InCell Corp. San Antonio, Tex.).
# Both cell lines are kept at 37° C. and 5% CO2 atmosphere. Both media are supplemented with 10% fetal bovine serum (FBS, Biowhittaker, Inc. Walkersville, Md.).
# Cells are fixed in situ by the gentle addition of 50 μl of cold 50% (w/v) TCA (final concentration, 10% TCA) and incubated for 60 minutes at 4° C. The supernatant is discarded, and the plates are washed five times with tap water and air dried. Sulforhodamine B (SRB) solution (100 μl) at 0.4% (w/v) in 1% acetic acid is added to each well, and plates are incubated for 10 minutes at room temperature. After staining, unbound dye is removed by washing five times with 1% acetic acid and the plates are air dried. Bound stain is subsequently solubilized with 100 μl 10 mM trizma base for 5 minutes, and the absorbance at wavelength of 490 nm was spectrophotometrically measured using a microplate reader Elx800 (Bio-Tek instruments, Inc.).
# Cells were seeded in 96-well cluster tissue culture plates (Costar), containing 100 μl complete growth medium per well at densities of 5,000 cells per well. Incubated at 37° C. in a humidified tissue culture incubator. After 24 Hour, 100 μl complete medium containing 5 half-log dilutions of the 5FU from 2*10^−4 to 2*10^−6 M was added into each well (final concentrations are from 10^−4 to 10^−6 M). Six replicates were used for each concentration. Media containing 0.125% DMSO was used as control. After 48 hours of incubation with 5FU in medium, cell proliferation was assessed using the SRB assay.
# Percentage growth (Growth%) is calculated as: [(Ti−Tz)/(C−Tz)]×100 [absorbance measurements at time zero (Tz), control growth (C), and test growth in the presence of drug at the different concentration levels (Ti)].
# Similar to the method used in testing GI50 of 5FU: HT29 was plated at 5000 cells per well. […] After 48 hour treatment, cell growth was assessed using SRB assay.
# The protocol was the same as described above, except cells were exposed to 5FU at concentration ranging from 10^−4 to 10^−6 M with chokeberry ARE at concentration of 1.56, 5, 15.6, 50 μg monomeric anthocyanin/ml growth media.
# The protocol was the similar to Experiment 1: Cells were exposed to half-log diluted SAC at concentration ranging from 3.2 to 1000 μM for 48 hour. Media containing 0.5% filtered water was used as control.
# This experiment was to determine whether the antioxidant, SAC would enhance the effect of 5FU in HT29 cells. The protocol was the same as Experiment 3, except cells were exposed to 5FU at concentration ranging from 10^−4 to 10^−6 M with SAC at concentration of 10, 100, 1000 μM.
# [1] = 5FU 1.0E−4 M, 48 h, experiment 1
# [2] = 5FU 1.0E−4 M, 48 h, experiment 2
# [3] = 5FU 1.0E−4 M, 48 h, experiment 3
# [4] = 5FU 1.0E−4 M, 48 h, experiment 4
# [5] = 5FU 1.0E−4.5 M, 48 h, experiment 1
# [6] = 5FU 1.0E−4.5 M, 48 h, experiment 2
# [7] = 5FU 1.0E−4.5 M, 48 h, experiment 3
# [8] = 5FU 1.0E−4.5 M, 48 h, experiment 4
# [9] = 5FU 1.0E−5 M, 48 h, experiment 1
# [10] = 5FU 1.0E−5 M, 48 h, experiment 2
# [11] = 5FU 1.0E−5 M, 48 h, experiment 3
# [12] = 5FU 1.0E−5 M, 48 h, experiment 4
# [13] = 5FU 1.0E−5.5 M, 48 h, experiment 1
# [14] = 5FU 1.0E−5.5 M, 48 h, experiment 2
# [15] = 5FU 1.0E−5.5 M, 48 h, experiment 3
# [16] = 5FU 1.0E−5.5 M, 48 h, experiment 4
# [17] = 5FU 1.0E−6 M, 48 h, experiment 1
# [18] = 5FU 1.0E−6 M, 48 h, experiment 2
# [19] = 5FU 1.0E−6 M, 48 h, experiment 3
# [20] = 5FU 1.0E−6 M, 48 h, experiment 4
# [21] = Table 2: 5FU at 1.0E-4.368 M alone, 48 h
# [22] = Table 6 (1): 5FU 1.00E−04 M, SAC 0
# [23] = Table 6 (1): 5FU 1.00E−05 M, SAC 0
# [24] = Table 6 (1): 5FU 1.00E−06 M, SAC 0
# [25] = Table 6 (2): 5FU 1.00E−04 M, SAC 0
# [26] = Table 6 (2): 5FU 1.00E−05 M, SAC 0
# [27] = Table 6 (2): 5FU 1.00E−06 M, SAC 0
structure (smiles),measurement,setting,value
"O=c1[nH]cc(F)c(=O)[nH]1 [5FU, 5-fluorouracil]",response rate,colon cancer,20%
same,Growth %,HT29 colon cancer cells; [1],48.88%
same,OD,HT29 colon cancer cells; [1],0.30
same,Growth %,HT29 colon cancer cells; [2],34.83%
same,OD,HT29 colon cancer cells; [2],0.25
same,Growth %,HT29 colon cancer cells; [3],37.16%
same,OD,HT29 colon cancer cells; [3],0.26
same,Growth %,HT29 colon cancer cells; [4],42.91%
same,OD,HT29 colon cancer cells; [4],0.25
same,Growth %,HT29 colon cancer cells; [5],54.63%
same,OD,HT29 colon cancer cells; [5],0.32
same,Growth %,HT29 colon cancer cells; [6],44.48%
same,OD,HT29 colon cancer cells; [6],0.27
same,Growth %,HT29 colon cancer cells; [7],43.58%
same,OD,HT29 colon cancer cells; [7],0.27
same,Growth %,HT29 colon cancer cells; [8],53.85%
same,OD,HT29 colon cancer cells; [8],0.27
same,Growth %,HT29 colon cancer cells; [9],60.38%
same,OD,HT29 colon cancer cells; [9],0.33
same,Growth %,HT29 colon cancer cells; [10],57.93%
same,OD,HT29 colon cancer cells; [10],0.31
same,Growth %,HT29 colon cancer cells; [11],56.76%
same,OD,HT29 colon cancer cells; [11],0.31
same,Growth %,HT29 colon cancer cells; [12],70.85%
same,OD,HT29 colon cancer cells; [12],0.32
same,Growth %,HT29 colon cancer cells; [13],82.11%
same,OD,HT29 colon cancer cells; [13],0.40
same,Growth %,HT29 colon cancer cells; [14],77.24%
same,OD,HT29 colon cancer cells; [14],0.37
same,Growth %,HT29 colon cancer cells; [15],76.69%
same,OD,HT29 colon cancer cells; [15],0.37
same,Growth %,HT29 colon cancer cells; [16],87.85%
same,OD,HT29 colon cancer cells; [16],0.36
same,Growth %,HT29 colon cancer cells; [17],94.25%
same,OD,HT29 colon cancer cells; [17],0.44
same,Growth %,HT29 colon cancer cells; [18],94.83%
same,OD,HT29 colon cancer cells; [18],0.42
same,Growth %,HT29 colon cancer cells; [19],88.51%
same,OD,HT29 colon cancer cells; [19],0.41
same,Growth %,HT29 colon cancer cells; [20],96.36%
same,OD,HT29 colon cancer cells; [20],0.38
same,growth inhibition,HT29 colon cancer cells; 5FU alone at GI50 concentration (FIG. 1),65%
same,Growth %,HT29 colon cancer cells; [21],35.02%
same,OD,HT29 colon cancer cells; [21],0.22
same,Growth %,"HT29 colon cancer cells; Table 3: 5FU 1.0E−4 M, ARE 0",29.77%
same,OD,"HT29 colon cancer cells; Table 3: 5FU 1.0E−4 M, ARE 0",0.20
same,Growth %,"HT29 colon cancer cells; Table 3: 5FU 1.0E−5 M, ARE 0",49.30%
same,OD,"HT29 colon cancer cells; Table 3: 5FU 1.0E−5 M, ARE 0",0.24
same,Growth %,"HT29 colon cancer cells; Table 3: 5FU 1.0E−6 M, ARE 0",82.33%
same,OD,"HT29 colon cancer cells; Table 3: 5FU 1.0E−6 M, ARE 0",0.31
same,Growth %,HT29 colon cancer cells; [22],27.44%
same,OD,HT29 colon cancer cells; [22],0.175
same,Growth %,HT29 colon cancer cells; [23],52.09%
same,OD,HT29 colon cancer cells; [23],0.228
same,Growth %,HT29 colon cancer cells; [24],91.63%
same,OD,HT29 colon cancer cells; [24],0.313
same,Growth %,HT29 colon cancer cells; [25],26.16%
same,OD,HT29 colon cancer cells; [25],0.178
same,Growth %,HT29 colon cancer cells; [26],43.46%
same,OD,HT29 colon cancer cells; [26],0.219
same,Growth %,HT29 colon cancer cells; [27],79.32%
same,OD,HT29 colon cancer cells; [27],0.304
same,"growth of cells, % of control",HT29 colon cancer cells; highest concentration of 5FU alone,30 % of control
same,"growth of cells, % of control",HT29 colon cancer cells; intermediate concentration of 5FU alone,50 % of control
same,"growth of cells, % of control",HT29 colon cancer cells; lowest concentration of 5FU (10^−6 M) alone,80 % of control
